Source: US10239869B2, “Sulfonamide compounds as voltage-gated sodium channel modulators” (LUPIN LIMITED, priority 2015, dated 2019)

Target: Nav 1.5 (Homo sapiens (Human), UniProt Q14524)
Test: Inhibition of sodium channels, Red Membrane Potential Dye FLIPR assay, veratridine depolarization
Assay type: cell-based
Conditions: HEK-293 cells overexpressing the channel; 10 μM

Nav 1.5, sequence (Q14524 whole entry): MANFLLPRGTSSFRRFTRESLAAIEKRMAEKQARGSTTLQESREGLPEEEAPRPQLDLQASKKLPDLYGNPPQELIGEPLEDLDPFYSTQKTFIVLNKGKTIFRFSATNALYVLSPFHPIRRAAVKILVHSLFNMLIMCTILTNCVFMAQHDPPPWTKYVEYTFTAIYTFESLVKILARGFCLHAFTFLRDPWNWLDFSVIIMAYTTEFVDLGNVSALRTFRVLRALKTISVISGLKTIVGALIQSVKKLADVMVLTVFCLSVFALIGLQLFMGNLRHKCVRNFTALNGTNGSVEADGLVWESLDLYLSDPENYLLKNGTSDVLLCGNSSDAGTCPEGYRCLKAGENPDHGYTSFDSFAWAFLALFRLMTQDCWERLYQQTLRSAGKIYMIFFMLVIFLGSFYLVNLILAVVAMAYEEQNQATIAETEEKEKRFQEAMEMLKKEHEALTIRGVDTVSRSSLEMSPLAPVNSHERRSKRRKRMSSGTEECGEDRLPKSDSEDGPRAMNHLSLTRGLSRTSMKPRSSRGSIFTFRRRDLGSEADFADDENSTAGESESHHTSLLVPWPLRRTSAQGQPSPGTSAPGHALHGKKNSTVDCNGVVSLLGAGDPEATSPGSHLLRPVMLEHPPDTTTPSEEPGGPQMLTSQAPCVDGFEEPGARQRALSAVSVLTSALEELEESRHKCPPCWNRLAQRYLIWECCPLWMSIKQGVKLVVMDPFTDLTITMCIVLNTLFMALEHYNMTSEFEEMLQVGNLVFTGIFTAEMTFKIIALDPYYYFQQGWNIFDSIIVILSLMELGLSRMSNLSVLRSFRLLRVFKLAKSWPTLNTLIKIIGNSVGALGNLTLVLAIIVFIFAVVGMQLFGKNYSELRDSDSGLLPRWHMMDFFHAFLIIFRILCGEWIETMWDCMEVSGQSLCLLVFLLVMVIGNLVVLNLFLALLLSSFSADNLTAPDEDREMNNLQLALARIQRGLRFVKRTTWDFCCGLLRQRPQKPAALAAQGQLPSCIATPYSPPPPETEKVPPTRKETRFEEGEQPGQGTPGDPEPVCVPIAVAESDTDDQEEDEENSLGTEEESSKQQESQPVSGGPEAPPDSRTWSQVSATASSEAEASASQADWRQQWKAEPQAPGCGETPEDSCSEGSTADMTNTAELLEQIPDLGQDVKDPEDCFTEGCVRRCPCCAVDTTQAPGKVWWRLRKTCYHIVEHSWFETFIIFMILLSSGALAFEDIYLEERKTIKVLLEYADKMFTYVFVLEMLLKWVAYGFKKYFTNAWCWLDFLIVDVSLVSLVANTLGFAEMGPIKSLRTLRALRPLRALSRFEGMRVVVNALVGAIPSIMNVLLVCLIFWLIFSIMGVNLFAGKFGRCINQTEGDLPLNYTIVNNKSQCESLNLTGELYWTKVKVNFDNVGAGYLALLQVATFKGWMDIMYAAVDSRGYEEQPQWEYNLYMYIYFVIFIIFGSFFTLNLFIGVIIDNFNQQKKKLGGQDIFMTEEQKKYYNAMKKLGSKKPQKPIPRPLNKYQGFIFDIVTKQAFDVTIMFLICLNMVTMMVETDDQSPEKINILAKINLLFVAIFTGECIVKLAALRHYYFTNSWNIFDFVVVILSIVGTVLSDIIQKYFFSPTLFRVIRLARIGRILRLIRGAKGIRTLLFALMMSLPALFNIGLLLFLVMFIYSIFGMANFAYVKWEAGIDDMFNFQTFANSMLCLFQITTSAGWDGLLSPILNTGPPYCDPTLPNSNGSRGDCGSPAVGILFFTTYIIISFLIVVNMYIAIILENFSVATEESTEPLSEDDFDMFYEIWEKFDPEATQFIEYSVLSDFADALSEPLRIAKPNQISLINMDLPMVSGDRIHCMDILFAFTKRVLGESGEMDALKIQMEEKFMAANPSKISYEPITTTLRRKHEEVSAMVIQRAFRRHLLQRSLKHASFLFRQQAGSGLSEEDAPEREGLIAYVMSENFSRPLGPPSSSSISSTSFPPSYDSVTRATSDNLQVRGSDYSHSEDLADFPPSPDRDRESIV

| SMILES | Nav1.5 % inhibition @ 10 μM [%] |
| --- | --- |
| Cn1nccc1-c1cc(C(F)(F)F)ccc1[C@H]1CCOc2cc(S(=O)(=O)Nc3cc(F)ccn3)ccc21 [Example 4, (S&R)—N-(4-Fluoropyridin-2-yl)-4-(2-(1-methyl-1H-pyrazol-5-yl)-4-(trifluoromethyl)phenyl)chroman-7-sulfonamide] | 57 |
| Cn1nccc1-c1cc(C(F)(F)F)ccc1[C@@H]1CCOc2cc(S(=O)(=O)Nc3ccc(F)cn3)ccc21 [Example 5, (S&R)—N-(5-Fluoropyridin-2-yl)-4-(2-(1-methyl-1H-pyrazol-5-yl)-4-(trifluoromethyl)phenyl)chroman-7-sulfonamide] | 58 |

Same assay, conditions: HEK-293 cells overexpressing the channel; read-out: Nav1.5 IC50 (bound given in μM)

| SMILES | IC50 [µM] |
| --- | --- |
| O=S1(=O)CCN(c2cc(C(F)(F)F)ccc2[C@H]2CCOc3cc(S(=O)(=O)Nc4ncc(F)cn4)ccc32)CC1 (racemic) [Example-234, (R/S)-4-(2-(1,1-dioxidothiomorpholino)-4-(trifluoromethyl)phenyl)-N-(5-fluoropyrimidin-2-yl)chroman-7-sulfonamide] | > 10 |
| O=S1(=O)CCN(c2cc(C(F)(F)F)ccc2[C@H]2CCOc3cc(S(=O)(=O)Nc4cccc(F)n4)ccc32)CC1 (racemic) [Example-235, (R/S)-4-(2-(1,1-dioxidothiomorpholino)-4-(trifluoromethyl)phenyl)-N-(6-fluoropyridin-2-yl)chroman-7-sulfonamide] | > 10 |
| O=S1(=O)CCN(c2cc(C(F)(F)F)ccc2[C@H]2CCOc3cc(S(=O)(=O)Nc4ccncn4)ccc32)CC1 (racemic) [Example-237, (R/S)-4-(2-(1,1-dioxidothiomorpholino)-4-(trifluoromethyl)phenyl)-N-(pyrimidin-4-yl)chromane-7-sulfonamide] | > 10 |
| Cn1nccc1-c1cc(C(F)(F)F)ccc1[C@@H]1CCOc2cc(S(=O)(=O)Nc3cc(F)ccn3)ccc21 [Example 3, (S&R)—N-(4-Fluoropyridin-2-yl)-4-(2-(1-methyl-1H-pyrazol-5-yl)-4-(trifluoromethyl)phenyl)chroman-7-sulfonamide] | > 10 |
| Cn1nccc1-c1cc(C(F)(F)F)ccc1[C@@H]1CCOc2cc(S(=O)(=O)Nc3ccncn3)ccc21 [Example 9, (S&R)-4-(2-(1-Methyl-1H-pyrazol-5-yl)-4-(trifluoromethyl)phenyl)-N-(pyrimidin-4-yl) chroman-7-sulfonamide] | > 10 |
| Cn1nccc1-c1cc(C(F)(F)F)ccc1[C@H]1CCOc2cc(S(=O)(=O)Nc3ccncn3)ccc21 [Example 10, (S&R)-4-(2-(1-Methyl-1H-pyrazol-5-yl)-4-(trifluoromethyl)phenyl)-N-(pyrimidin-4-yl) chroman-7-sulfonamide] | > 10 |
| Cn1nccc1-c1cc(C(F)(F)F)ccc1[C@H]1CCOc2cc(S(=O)(=O)Nc3cnccn3)ccc21 [Example 12, (S&R)-4-(2-(1-Methyl-1H-pyrazol-5-yl)-4-(trifluoromethyl)phenyl)-N-(pyrazin-2-yl) chromane-7-sulfonamide] | > 10 |
| O=S(=O)(Nc1ncc(F)cn1)c1ccc2c(c1)OCC[C@H]2c1ccc(C(F)(F)F)cc1-c1ccc(F)nc1 [Example 37, (S&R)-4-(2-(6-Fluoropyridin-3-yl)-4-(trifluoromethyl)phenyl)-N-(5-fluoropyrimidin-2-yl) chromane-7-sulfonamide] | > 10 |
| O=S(=O)(Nc1ncc(F)cn1)c1ccc2c(c1)OCC[C@@H]2c1ccc(C(F)(F)F)cc1-c1ccc(F)nc1 [Example 38, (S&R)-4-(2-(6-Fluoropyridin-3-yl)-4-(trifluoromethyl)phenyl)-N-(5-fluoropyrimidin-2-yl) chromane-7-sulfonamide] | > 10 |
| O=S(=O)(Nc1ncc(F)cn1)c1ccc2c(c1)OCC[C@H]2c1ccc(C(F)(F)F)cc1-c1ccc(F)cc1 [Example 45, (S&R)-4-(4′-Fluoro-5-(trifluoromethyl)-[1,1′-biphenyl]-2-yl)-N-(5-fluoropyrimidin-2-yl) chromane-7-sulfonamide] | > 10 |
